Values quoted from earlier work as cited in patent publication US20080131532A1, “Fast asleep” (priority 2006, published 2008).

Experiments:
rat brain = conditions: following administration
[1] = in vivo
[2] = test system: patients with multi-infarct dementia or senile dementia and senile and pre-senile simple memory disorders
[3] = test system: subjects with Alzheimer's disease; conditions: eight weeks, 50 subjects
patients with tinnitus = conditions: 3 mg per day for 4 weeks; weeks 0 to 4 and weeks 0 to 8
healthy male volunteers = conditions: 10-mg dose for 28 days, 1 hour before sleep time
healthy elderly subjects = conditions: 1 mg nightly for 4 weeks
[4] = test system: primary or secondary sleep disorders; conditions: meta-analysis
[5] = test system: children with idiopathic chronic sleep-onset insomnia; conditions: 5 mg at 7 pm, 4-week treatment
women with asthma = conditions: 3 mg for 4 weeks, between groups
[6] = test system: children with neurologic disorders; conditions: 5 milligrams at bedtime, six children
[7] = test system: travelers crossing five or more time zones
jet lag = conditions: two doses, different administration times
women = conditions: 100 mg pill at 08.00 h
[8] = test system: long-term users of benzodiazepine; conditions: 2 milligrams daily controlled release
[9] = test system: schizophrenic outpatients with initial insomnia; conditions: 3-12 mg/night, 15 days
[10] = sleep-disturbed rats, 09:00 to 15:00

For `C/C=C1\[C@H]2C=C(C)C[C@]1(N)c1ccc(=O)[nH]c1C2` [Huperzine A], the “acetylcholine levels in the rat brain” value (rat brain) is listed as “increase”, the dopamine levels (rat brain) is listed as “increases” and the norepinephrine levels (rat brain) is listed as “increases”. The “time to reach peak blood level” value [1] was “approximately 80 minutes”, the Dizziness ([2]; in vivo) was “experienced by a few” and the “Wechsler Memory Scale” value ([2]; injectable form versus saline control) was “significant positive effects”. For the same compound, the “duration of AChE inhibitory action” value (compared with tacrine, donepezil, and rivastigmine) was “longer duration”, the “penetration through the blood-brain barrier” value (in vivo) was “better penetration” and the “toxicity in animal and clinical safety tests” value (in vivo) was “no unexpected toxicity”. For the same compound, the oral bioavailability (in vivo, po) was “higher”, the memory deficits (phase IV clinical trials in China, elderly with benign senescent forgetfulness, Alzheimer disease, vascular dementia) was “significantly improved” and the “patients with significant improvement in memory, cognitive and behavioral functions” value [3] was 58%.
For `CCOC(=O)c1ncn2c1CN(C)C(=O)c1cc(F)ccc1-2` [Flumazenil, flumazenil], the “effect on changes in delta activity induced by kava-kava extract and flunitrazepam” value (sleep-disturbed rats; sleep-disturbed rats) is given as “no significant effect”.
In the case of `COc1ccc2[nH]cc(CCNC(C)=O)c2c1` [Melatonin, N-[2-(5-Methoxy-1H-indol-3-yl)ethyl]acetamide], the “mean PSQI” value (patients with tinnitus) is given as “significantly decreased”, the “mean THI score” value (patients with tinnitus) is given as “decreased significantly” and the “sleep latency, criterion 10 minutes of uninterrupted sleep” value (healthy male volunteers) is given as “significant reduction”. The “California Verbal Learning Test-interference subtest scores” value (healthy elderly subjects) was “improved”, the reported morning restedness (healthy elderly subjects) was “improved” and the “sleep latency after nocturnal awakening” value (healthy elderly subjects) was “improved”. For the same compound, the “efficacy in primary or secondary sleep disorders” value [4] was “not effective”, the Lights-off time [5] was “did not change” and the “advance of sleep offset” value [5] was 9 min. For the same compound, the “advance of sleep onset” value [5] was 57 min, the “decrease of sleep latency” value [5] was 17 min and the “total scores of the RAND-GHRI and FS-II compared to placebo” value [5] was “improved significantly more”. For the same compound, the total sleep time [5] was “did not change”, the “advance of melatonin onset” value ([5]; dim light melatonin onset in saliva) was 82 min and the “standardized response mean for the RAND-GHRI” value ([5]; placebo 0.07) was 0.69. The “standardized response mean for the FS-II” value ([5]; placebo 0.64) was 1.61, the “asthma symptoms, use of relief medication and daily peak expiratory flow rate” value (women with asthma) was “No significant difference” and the “Quality and quantity of sleep” value [6] was “quickly increased in five of the six children”. For the same compound, the “effect on jet lag” value [7] was “reduce or prevent jet lag”, the “effect on jet lag versus placebo” value (jet lag) was “no beneficial physiological effect” and the “daytime cortisol levels in postmenopausal women (PMW)” value (women) was “marked increase”. The “serum cortisol levels in young women (EFW)” value (women) was “did not modify”, the “Sleep quality scores versus placebo” value [8] was “significantly higher” and the “subjects who completely discontinued benzodiazepine use” value ([8]; period one, placebo four of 16) was 14 of 18. The daytime functioning [9] was “improved”, the duration of sleep [9] was “increased” and the freshness on awakening [9] was “heightened”. The mood [9] was “improved”, the “number of nighttime awakenings” value [9] was “reduced” and the “sleep-onset latency (subjective)” value [9] was “significantly reduced”.
For `CC1=C[C@H]2Cc3[nH]c(=O)ccc3[C@]3(C1)NCCC[C@H]23` [Huperzine B], the “acetylcholinesterase inhibition (in words)” value (acetylcholinesterase) is given as “much less potent”.
For `CN1C(=O)CN=C(c2ccccc2F)c2cc([N+](=O)[O-])ccc21` [flunitrazepam], the “antagonism of the effects by flumazenil” value (sleep-disturbed rats; benzodiazepine receptor antagonist flumazenil) is listed as “antagonized”, the “delta activity during non-REM sleep” value (sleep-disturbed rats; sleep-disturbed rats) is listed as “significant decrease” and the “total non-REM sleep time” value (sleep-disturbed rats; [10]) is listed as “increase”. The total waking time (sleep-disturbed rats; [10]) was “decrease” and the sleep latency (sleep-disturbed rats; sleep-disturbed rats, kava-kava extract 300 mg/kg) was “significant shortening”.
